Measurements as given in PMC12087653 (Autophagy, 2025).

Columns and labels:
LGG-1 = LGG-1 (Caenorhabditis elegans, UniProt Q09490); conditions: cited from earlier work
GABARAP = conditions: full-length HsEPG5; cited from earlier work
HeLa cells = conditions: Rab7 colocalization; cited from earlier work
[1] = test system: STX17-SNAP29-VAMP8 complex; conditions: in vitro fusion assay; cited from earlier work
LC3/GABARAP proteins = conditions: cited from earlier work
His-LGG-1 = His-LGG-1 (C. elegans, UniProt Q09490 1-116); assay: ITC
His-LGG-1, sequence (Q09490 1-116): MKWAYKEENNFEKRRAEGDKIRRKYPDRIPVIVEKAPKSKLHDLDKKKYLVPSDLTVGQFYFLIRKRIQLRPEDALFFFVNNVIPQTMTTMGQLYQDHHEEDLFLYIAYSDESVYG

LGG-1, sequence (Q09490 whole entry): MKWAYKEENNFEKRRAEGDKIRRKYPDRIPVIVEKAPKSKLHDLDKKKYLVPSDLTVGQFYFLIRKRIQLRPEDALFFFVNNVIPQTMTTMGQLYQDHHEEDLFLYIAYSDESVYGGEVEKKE

## CeEPG5: C. elegans EPG-5, recombinant
LGG-1
  binding to LGG-1: binds the C. elegans Atg8 protein LGG-1 via its tandem LIR

## HsEPG5: human EPG5 (ectopic P-granules 5 autophagy tethering factor; ~290 kDa)
GABARAP
  Atg8 subfamily preference of HsEPG5: preferentially binds members of the GABARAP subfamily
HeLa cells
  formation of puncta / localization in cells: could form small puncta that colocalize with lysosomal surface-residing Rab7 in HeLa cells
[1]
  effect on STX17-SNAP29-VAMP8 complex formation: modestly enhances the formation of the STX17-SNAP29-VAMP8 complex
LC3/GABARAP proteins
  dependence of peri-nuclear localization on LC3/GABARAP proteins: HsEPG5 localization to the peri-nuclear region is independent of LC3/GABARAP proteins

## GEANEFSFVTINE [CeEPG5 LIR2 peptide (516GEANEFSFVTINE528)]
His-LGG-1
  Kd: 10.4 µM

## STWEILADDDD [CeEPG5 LIR1 peptide (505STWEILADDDD515)]
His-LGG-1
  Kd: 1.46 µM
